This note sets out measurements from publication PMC12579162, “Synthesized Depside Molecules Suppress the Progression of Colorectal Cancer by Binding VDAC1/PHB/MMP9 Being at the Crossroads of Stemness, Motility, Apoptosis, and Metabolism” (MedComm, 2025).

For one series, the system named is caspase 3/7 in CRC cells. The series is described as follows: Caspase-Glo 3/7 activity. The format is cell-based, human. Conditions: 10 µM, 48 h, relative to DMSO. How it is done: Caspase 3/7 activity was determined with a Caspase-Glo 3/7 assay kit (Promega). CRC cells were seeded in 96 well plates, 10000 per well cells, with media containing 2% FBS. Treatments were applied after overnight incubation, incubated for 48 hours. After treatment, Caspase-Glo reagent was added to each well and incubated in the dark for 1 hour. […] was recorded with the GloMax® Microplate Reader.

Series [1] is described as follows: Pharmacokinetic study in rat. It is filed as in vivo, Sprague–Dawley rats. Conditions: male, Sprague-Dawley, plasma; for AUC(0-inf): read-out: AUCINF obs. How it is done:
The stock solution of SB4 and SB5 was prepared at a concentration of 1.0 mg/mL in DMSO. Additionally, the standard solutions for SB4 and SB5 were prepared by diluting with 60% ACN (0.1% formic acid) in distilled water (DW). The final concentrations of the prepared standard solutions were 5, 10, 25, 50, 100, 250, 500, and 1000 ng/mL, and they were prepared in 1.5 mL polyethylene microtubes (Axygen Inc., Union City, CA, USA). Furthermore, quality control samples were manufactured using DMSO, with final concentrations of 15 ng/mL (low quality control), 80 ng/mL (mid quality control), and 800 ng/mL (high quality control) using 60% ACN (0.1% formic acid) in DW. The IS solution (Deucravacitinib) was also prepared in DMSO and diluted to a final concentration of 10 ng/mL in 60% ACN (0.1% formic acid) in DW.
The sample stored at −80°C was dissolved at room temperature, vortexed for 3 s, and a protein precipitation method using ACN was employed. In a 1.5 mL polyethylene microtube, 10 µL of the IS (10 ng/mL) was added to 45 µL of plasma, and 500 µL of ACN was added. Next, the sample was mixed in a vortex (M37610‐33; Barnstead International, USA) for 3 min. Then, 500 µL of the supernatant was centrifuged at 10000 g for 10 min and transferred to a LC vial, from which 10 µL was injected into the LC–MS/MS system.
The LC–MS/MS system comprises a SCIEX Triple Quad 6500+ system (Melbourne, Australia) coupled with a Shimadzu Nexera series SCL‐40 system controller, DGU‐405 degassing unit, LC‐40D X3 solvent delivery module, SIL‐40C X3 autosampler, and CTO‐40C column oven (Melbourne, Australia).
Chromatographic separations were performed using a Synergi 4 µm Hydro‐RP 80 Å, LC Column (30 × 2 mm). The mobile phase consisted of 0.1% FA in DW and ACN in 0.1% FA. The optimal flow rate was 0.5 mL/min, and the linear gradient elution profile was as follows: 0–0.5 min 20% B, 0.5–1.0 min 80% B, 1.0–2.0 min 80% B, 2.0–2.5 min 20% B, 2.5–3.0 min 20% B. The injection volume was 5 µL, and the total analysis time per sample was 3.0 min. The column oven temperature was maintained at 40°C.
The sample was ionized by an electrospray ionization source. The mass spectrometer was operated in positive ion mode with MRM scan mode for high sensitivity and selectivity. The turbo ion gas temperature was set at 400°C. To optimize the source parameters and compound parameters, a standard solution of 10 ng/mL was injected into the mass spectrometer at a rate of 7 µL/min through an infusion pump. The MRM transitions selected for quantification were m/z 375.075 to 150.100 for DA, m/z 447.113 to 415.200 for SB‐04, m/z 461.119 to 429.100 for SB‐05, and m/z 426.093 to 358.000 for the IS (Deucravacitinib). The system operating programs were Analyst software (version 1.7.2) and Chromelon.
The animal testing procedure was approved by the Animal Management Committee of Dankook University (21‐038). Seven‐week‐old male Sprague–Dawley rats (weighing 250–290 g) were purchased from Samtaco Inc. (Osan, South Korea). All rats were housed randomly in groups of four, maintained under appropriate lighting and room conditions (22 ± 2°C, relative humidity 50 ± 10%, with a 12‐h light/dark cycle). Prior to the experiments, the rats had free access to food (Samtaco Inc.) and water in their cages. The animal experiments were conducted after a minimum environmental adaptation period of 1 week. On the day of the experiments, the jugular vein of each rat was cannulated individually with polyethylene tubing (Clay Adams, Parsippany, NJ, USA) under anesthesia. The cannula was exteriorized to the dorsal side of the neck, where the cannula terminated with a long silastic tubing (Dow Corning, Midland, MI, USA). The silastic tube was covered with a wire to allow free movement of the rat. Each rat was housed individually in a rat metabolic cage (Daejong Scientific Company, Seoul, Korea) and was allowed to recover from anesthesia for 4–5 h before the study began. The rats were not restrained during the experimental period. […]

The subject of a further series is CT26–iRFP cells. The series is described as follows: CT26–iRFP derived tumor growth model. Conditions: 5, 10, or 20 mg/kg intraperitoneally every other day. It is filed as in vivo, BALB/C mice. The procedure: The antitumor efficacy of VDAC1/PHB/MMP‐binding compound was evaluated using a xenograft model. Six‐week‐old male BALB/C mice were obtained from OrientBio. 1 × 10⁶ CT26 cells were subcutaneously implanted to each mouse. After 1 week inoculation, mice were treated with intraperitoneal injections of either vehicle (DMSO/PBS) or SB4 at a dose of 5, 10 and 20 mg/kg, administered every other day. Tumor volumes and body weight was measured every 2 days. Bioimaging of near‐infrared fluorescence was obtained using a FOBI system (Cellgentek, Osong, Korea) for three time point. After euthanizing the mice, tumor tissues were successfully collected, and the tumor weight was measured for each sample. According to the Guiding Principles in the Care and Use of Animals (DHEW publication, NIH 80–23), the in vivo experiments were performed with the approval of the Sunchon National University Research Institutional Animal Care and Use Committee (SCNU IACUC‐2024‐17).

In the case of `COCCOc1c(C)c(OC(=O)c2c(C)cc(OC)c(C)c2OC)cc(C)c1C(=O)OC` [SB4, 4-(Methoxycarbonyl)-3-(2-methoxyethoxy)-2,5-dimethylphenyl 2,4-dimethoxy-3,6-dimethylbenzoate], the “caspase 3/7 activity” value in the series on caspase 3/7 in CRC cells is reported as “induced”. In addition, in series [1] (IP 10 mg/kg), the AUC(0-t) (commonly the area under the concentration-time curve up to a stated or last time point) worked out at 173 ± 16.3 ng·h/mL; the maximum concentration (Cmax) (in general, the highest concentration seen after dosing) worked out at 60.8 ± 18.2 ng/mL; the Tmax (commonly the time from dosing to the highest level) is 0.31 ± 0.13 h; the AUC(0-inf) worked out at 394 ± 172 ng·h/mL. Also, in series [1] (PO 10 mg/kg), the AUC(0-t) stood at 113 ± 19.2 ng·h/mL, the Cmax was 27.8 ± 14.7 ng/mL and the Tmax is 2.88 ± 2.59 h. Also, in the series on CT26–iRFP cells, the mouse body weight result is recorded as “did not influence mouse body weight”. For the same molecule, in the series on CT26–iRFP cells (versus control), the “tumor volume and weight” value is “significantly reduced both tumor volume and weight in a dose‐dependent manner”.

On to `COCCCOc1c(C)c(OC(=O)c2c(C)cc(OC)c(C)c2OC)cc(C)c1C(=O)OC` [SB5, 4-(Methoxycarbonyl)-3-(3-methoxypropoxy)-2,5-dimethylphenyl 2,4-dimethoxy-3,6-dimethylbenzoate], for which the “caspase 3/7 activity” value with caspase 3/7 in CRC cells is on record as “induced”. For the same molecule, in series [1] (IP 10 mg/kg), the AUC(0-t) was 108 ± 17.9 ng·h/mL, the Cmax came out at 45.63 ± 0.31 ng/mL, the time of peak concentration (Tmax) came to 0.31 ± 0.13 h and the AUC(0-inf) worked out at 209 ± 32.4 ng·h/mL. In series [1] (PO 10 mg/kg), the AUC(0-t) was found to be 87.1 ± 11.8 ng·h/mL, the Cmax was 22 ± 8.01 ng/mL and the Tmax turned out to be 4.13 ± 2.59 h.
